The record followed here is PMC8162404, “Proteomimetic surface fragments distinguish targets by function” (Chemical Science, 2020).

The target in test [1] is T1, S100B (Homo sapiens, UniProt P04271).
T1 construct: made in house; host or cells: Escherichia coli BL21(DE3)
T1 sequence (P04271 1-92): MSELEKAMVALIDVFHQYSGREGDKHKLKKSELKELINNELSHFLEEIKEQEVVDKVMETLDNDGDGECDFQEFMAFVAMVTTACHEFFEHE
The experiment in a line: Pull-down assay with immobilized protein and LSM libraries. The conditions noted are these: 1:1 binding assumed, read-out: Surface mapping KD (apparent). In kind it is binding. In outline: (§1)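 Buffers were HEPES pH 7.4 with 150 mM NaCl, plus 1 mM TCEP and 1 mM CaCl2 (50 mM HEPES) for S100A4 and S100B, 1 mM TCEP for Gal-1, and no additive for RecQ-WH. Immobilized protein at 64 µM was equilibrated 30 min with the LSM sublibrary, and unbound probes were measured by LC-MS.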

For test [2], the target named is T2, Gal-1 (Homo sapiens, UniProt P09382).
T2 construct: made in house; host or cells: E. coli BL21(DE3)
T2 sequence (P09382 whole entry): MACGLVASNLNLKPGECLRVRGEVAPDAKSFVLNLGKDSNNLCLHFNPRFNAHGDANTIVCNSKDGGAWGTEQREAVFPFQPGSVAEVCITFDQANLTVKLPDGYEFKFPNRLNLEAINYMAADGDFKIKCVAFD
The description is as above. Format: binding. To be noted: 1:1 binding assumed, read-out: Surface mapping KD (apparent). In outline: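 His-tagged protein immobilized on Co-NTA resin (64 µM) in 20 mM HEPES pH 7.4, 150 mM NaCl, equilibrated 30 min at room temperature with foldamer LSM sublibraries at equimolar total concentration. Unbound fractions quantified by HPLC-MS versus protein-free resin control; apparent KD assumes 1:1 binding.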

Another test deals with T3, S100A4 (Homo sapiens, UniProt P26447).
T3 construct: made in house; host or cells: Escherichia coli BL21(DE3)
T3 sequence (P26447 whole entry): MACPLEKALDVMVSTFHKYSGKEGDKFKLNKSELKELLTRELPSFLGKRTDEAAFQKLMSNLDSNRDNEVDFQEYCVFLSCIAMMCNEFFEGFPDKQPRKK
The test is described as above. The conditions noted are these: H14 library; 1:1 binding assumed; read-out: Surface mapping KD (apparent). In kind it is binding. In outline:
as §1

In test [3] the target is T1, S100B. As to the kind of experiment: Competition pull-down with native ligand RSK1 (689–735). The conditions noted are these: H14 library; competitor peptide 200 µM; read-out: Surface mapping KD (apparent), competition. In kind it is binding.
Test [4] addresses T4, CaM (Bos taurus, UniProt P62157).
T4 construct: made in house; host or cells: E. coli BL21 (DE3)
The experiment in a line: Competition pull-down with native ligand TRPV1-Ct15. In kind it is binding, bovine. The conditions noted are these: H14 library; competitor peptide 200 µM; read-out: Surface mapping KD (apparent), competition.

The target of test [5] is T4, CaM. The experiment in a line: Pull-down assay with immobilized protein and LSM libraries. Format: binding, bovine. The conditions noted are these: H14 library; 1:2 stoichiometry assumed; read-out: Surface mapping KD (apparent). The procedure, abridged:
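His-tagged protein immobilized on Co-NTA resin, equilibrated 30 min at room temperature with LSM sublibraries (64 members, […]), equimolar protein to total probe. CaM buffer: 20 mM HEPES pH 7.4, 150 mM NaCl, 5 mM CaCl2. Bound fractions from HPLC-MS loss of unbound probe versus protein-free resin control; Kd derived.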

The target in test [6] is T2, Gal-1. As to the kind of experiment: Competition pull-down with lactose. Format: binding. To be noted: H14 library; lactose 10 mM; read-out: Surface mapping KD (apparent), competition. In outline:
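His6-tagged proteins immobilized on Co-NTA resin at 64 µM final with 64-member LSM foldamer sublibraries (1 M each, as printed) in pH 7.4 HEPES/NaCl buffers (Ca2+/TCEP per target), 30 min RT; competitor peptides 200 µM final, lactose 10 mM for Gal-1. Bound fractions from LC-MS loss vs protein-free resin; KD assuming 1:1 binding.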

In a further test the target is T5, RecQ-WH (Escherichia coli, UniProt P15043).
T5 construct: coding for residues 408– 523 of E. coli RecQ; made in house; host or cells: E. coli BL21(DE3)
T5 sequence (P15043 408-523): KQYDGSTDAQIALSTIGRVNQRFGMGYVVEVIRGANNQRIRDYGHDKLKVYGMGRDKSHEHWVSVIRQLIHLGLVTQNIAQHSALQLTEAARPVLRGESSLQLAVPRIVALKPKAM
As to the kind of experiment: Pull-down assay with immobilized protein and LSM libraries. Set-up: species or system E. coli. The conditions noted are these: 1:1 binding assumed, read-out: Surface mapping KD (apparent). As for the experimental part: Pull-down assays with immobilized test proteins and foldameric LSM libraries were carried out. Proteins were equilibrated with LSM probes, and equilibrium bound fractions (FB) were determined from the unbound fractions measured by HPLC-MS methods. Hits were corrected with background binding of the resin. The protocol allowed all binding events to equilibrate irrespective of affinity, specificity, and binding kinetics. This was essential to judge overall druggability and promiscuity. Importantly, the concentration of protein and the total concentration of foldameric LSMs were equimolar, which minimized competition between the probes. This experimental setup approximated independent binding of individual library members. Results were visualized as heat maps of dissociation constants (Fig. 3).
Pull-down assay and data analysis
Pull-down assay. LSM sublibraries were screened separately as previously described.(2) Experiments were performed in the following buffers: (i) 20 mM pH 7.4 HEPES, 150 mM NaCl, 5 mM CaCl2 for CaM; (ii) 50 mM pH 7.4 HEPES, 150 mM NaCl, 1 mM TCEP, 1 mM CaCl2 for S100 proteins; (iii) 20 mM pH 7.4 HEPES, 150 mM NaCl, 1 mM TCEP for Gal-1 and (iv) 20 mM pH 7.4 HEPES, 150 mM NaCl for RecQ-WH. Assays were performed in paper filter spin cups (Thermo Scientific) with sample volumes of 100 µl. Hexahistidine-tagged proteins were immobilized on previously washed Co-NTA resin (TALON, Takara Bio USA, Inc., Mountain View, CA) in 64 µM final concentration. LSM sublibrary was added, in which each of the 64 library members were used at a concentration of 1 µM. Samples were incubated at room temperature for 30 min with shaking at 100 rpm. Then, samples were centrifuged at 1000 rpm for 2 min and washed with 100 µl pull-down buffer to remove unbound compounds.
The control experiments were performed using the same compounds and the resin but without the immobilized protein. In case of competitive assays, competitor peptides were added to LSM sublibrary samples in 200 µM final concentration. In the case of Gal-1, lactose (competitor) was used in a concentration of 10 mM. Experiments were performed at least twice. Mean […]
LC-MS methods and parameters. HPLC/ESI-MS analysis was used to characterize the samples from the pull-down assay. LC-MS analysis was performed with a Thermo Scientific Dionex UltiMate 3000 HPLC system interfaced to an LTQ ion trap mass spectrometer (Thermo Electron Corp., San Jose, CA, USA). Samples were injected onto an Aeris Widepore XB-C18 (250 x 4.6 mm) analytical HPLC column using gradient elution 5-80 % solution B during 25 minutes. For pull-down samples, eluent composition was 0.1% acetic acid in distilled water (Solution A) and 0.1% acetic acid in acetonitrile (solution B). Mass spectra were acquired in full scan mode from 200 to 2000 m/z range. For overlapping peaks, selective reaction monitoring (SRM) was […]
MS data analysis. Thermo Xcalibur 2.2 software was used for peak identification and integration. The majority of the foldameric fragments could be resolved independently via HPLC-MS/MS measurements based on molecular weight, MS fragmentation pattern and retention time. Peaks of some foldamers with β3-hIle or β3-hLeu in position R2 could not be resolved, these were integrated and averaged. In the processing method, each sample component was associated to a chromatographic peak based on previously identified mass (m/z) and retention time (ref (2) and Table S7-10). Using ICIS peak detection algorithm, the general detection and integration criteria were: smoothing points: 5, baseline window: 80, area noise factor: 5, peak noise factor: 10. Using these processing setups, all raw data files were reprocessed together and analyzed. Errors in peak identification during the automatic processing were corrected manually.
Calculation of the discussed parameters
1. Bound fractions (FB.) were calculated from the HPLC-MS intensity loss of the LSM probes compared to the control where no protein was immobilized to the resin: […]

Read-outs that look alike come from different tables or passages of the source.

With `NC(=O)CC[C@@H](CC(=O)N[C@H]1CCCC[C@@H]1C(=O)N[C@H]1CCCC[C@@H]1C(=O)N[C@H](CC(=O)N[C@H]1CCCC[C@@H]1C(N)=O)Cc1ccccc1)NC(=O)[C@H]1CCCC[C@@H]1N` [H14 QF], the Kd stood at 83 µM at S100B [1] (H14 library); 285 µM on Gal-1 [2] (H14 library); 443 µM on S100A4; 425 µM on S100B [3]; 211 µM on CaM [4]; 39 µM on CaM [5]. Also, the Kd at Gal-1 [6] was 319 µM.

For the compound `NC(=O)[C@H]1CCCC[C@@H]1NC(=O)C[C@H](CC(=O)O)NC(=O)[C@H]1CCCC[C@@H]1NC(=O)[C@H]1CCCC[C@@H]1NC(=O)C[C@H](Cc1ccccc1)NC(=O)[C@H]1CCCC[C@@H]1N` [H14 FD], the Kd was 193 µM on RecQ-WH (H14 library) and 489 µM at CaM [5].

In the case of `CSCC[C@@H](CC(=O)N[C@H]1CCC[C@@H]1C(=O)N[C@H]1CCC[C@@H]1C(=O)N[C@@H](CCCNC(=N)N)CC(=O)N[C@H]1CCC[C@@H]1C(=O)N[C@H]1CCC[C@@H]1C(N)=O)NC(=O)[C@H]1CCC[C@@H]1NC(=O)[C@H]1CCC[C@@H]1N` [H12 MR], the results for the Kd at S100B [1] (H12 library), at Gal-1 [2] (H12 library) and at RecQ-WH (H12 library) were 59 µM, 186 µM and 435 µM, respectively.

For the compound `N=C(N)NCCC[C@@H](CC(=O)N[C@H]1CCCC[C@@H]1C(=O)N[C@H]1CCCC[C@@H]1C(=O)N[C@@H](CO)CC(=O)N[C@H]1CCCC[C@@H]1C(N)=O)NC(=O)[C@H]1CCCC[C@@H]1N` [H14 RS], the Kd is 413 µM at S100B [1] (H14 library), 403 µM at RecQ-WH (H14 library) and 155 µM at CaM [5].

On to `CC[C@H](C)[C@@H](CC(=O)N[C@H]1CCCC[C@@H]1C(N)=O)NC(=O)[C@H]1CCCC[C@@H]1NC(=O)[C@H]1CCCC[C@@H]1NC(=O)C[C@H](CCC(=O)O)NC(=O)[C@H]1CCCC[C@@H]1N` [H14 EI], for which the Kd at RecQ-WH (H14 library) was determined as 444 µM.

Consider `N=C(N)NCCC[C@@H](CC(=O)N[C@H]1CCCC[C@@H]1C(=O)N[C@H]1CCCC[C@@H]1C(=O)N[C@@H](CC(N)=O)CC(=O)N[C@H]1CCCC[C@@H]1C(N)=O)NC(=O)[C@H]1CCCC[C@@H]1N` [H14 RN], for which the results for the Kd on S100B [1] (H14 library), on RecQ-WH (H14 library) and on CaM [5] were 212 µM, 439 µM and 185 µM, respectively.

Take `NC(=O)[C@H]1CCC[C@@H]1NC(=O)[C@H]1CCC[C@@H]1NC(=O)C[C@H](CO)NC(=O)[C@H]1CCC[C@@H]1NC(=O)[C@H]1CCC[C@@H]1NC(=O)C[C@H](Cc1c[nH]c2ccccc12)NC(=O)[C@H]1CCC[C@@H]1NC(=O)[C@H]1CCC[C@@H]1N` [H12 WS]: the Kd was 54 µM on S100B [1] (H12 library), 413 µM at Gal-1 [2] (H12 library) and 420 µM on RecQ-WH (H12 library).

On to `CC(C)C[C@@H](CC(=O)N[C@H]1CCCC[C@@H]1C(N)=O)NC(=O)[C@H]1CCCC[C@@H]1NC(=O)[C@H]1CCCC[C@@H]1NC(=O)C[C@H](CCC(=O)O)NC(=O)[C@H]1CCCC[C@@H]1N` [H14 EL], for which the Kd at RecQ-WH (H14 library) is 444 µM.

As to `NCCCC[C@@H](CC(=O)N[C@H]1CCC[C@@H]1C(=O)N[C@H]1CCC[C@@H]1C(N)=O)NC(=O)[C@H]1CCC[C@@H]1NC(=O)[C@H]1CCC[C@@H]1NC(=O)C[C@H](Cc1c[nH]c2ccccc12)NC(=O)[C@H]1CCC[C@@H]1NC(=O)[C@H]1CCC[C@@H]1N` [H12 WK], the Kd is 26 µM at S100B [1] (H12 library), 266 µM on Gal-1 [2] (H12 library) and 431 µM at RecQ-WH (H12 library).

As to `N=C(N)NCCC[C@@H](CC(=O)N[C@H]1CCCC[C@@H]1C(=O)N[C@H]1CCCC[C@@H]1C(=O)N[C@@H](CC(=O)O)CC(=O)N[C@H]1CCCC[C@@H]1C(N)=O)NC(=O)[C@H]1CCCC[C@@H]1N` [H14 RD], the Kd on RecQ-WH (H14 library) is 427 µM.

Consider `CC(C)C[C@@H](CC(=O)N[C@H]1CCC[C@@H]1C(=O)N[C@H]1CCC[C@@H]1C(=O)N[C@@H](CCCCN)CC(=O)N[C@H]1CCC[C@@H]1C(=O)N[C@H]1CCC[C@@H]1C(N)=O)NC(=O)[C@H]1CCC[C@@H]1NC(=O)[C@H]1CCC[C@@H]1N` [H12 LK], for which the Kd at S100B [1] (H12 library) was found to be 54 µM; on RecQ-WH (H12 library) it was 434 µM.

For the compound `NC(=O)[C@H]1CCCC[C@@H]1NC(=O)C[C@H](CCC(=O)O)NC(=O)[C@H]1CCCC[C@@H]1NC(=O)[C@H]1CCCC[C@@H]1NC(=O)C[C@H](Cc1ccccc1)NC(=O)[C@H]1CCCC[C@@H]1N` [H14 FE], the Kd on RecQ-WH (H14 library) was 328 µM; on CaM [5], 475 µM.
